Laboratory results reported in ChEMBL document CHEMBL5441456, “ASAP - SARS-CoV-2 nsp3 macrodomain dose response” (2024).
Several values for one entry are separate records, joined by “and”; a condition that tells them apart may be missing. Equal entries are not always repeated.

target: Replicase polyprotein 1ab (Severe acute respiratory syndrome coronavirus 2, UniProt P0DTD1); test: Functional biochemical assay to identify treatments for viral infectious disease that targets SARS-COV-2 nsp3 macrodomain, whereby the mechanism of action displaces an ADP-Ribose modified peptide from the binding site. Utilizing a time-resolved fluorescence method to measure binding by reading the emitted fluorescence intensity in two wavelengths.

Row | SMILES | IC50
1 | CC(C)[C@H](Nc1ncnc2[nH]ccc12)C(=O)O | 34.1 µM and 33.8 µM
2 | CCNC(=O)c1cc2c(N[C@@H](c3ccc4c(c3)OCCO4)C(C)C)ncnc2[nH]1 | 0.28 µM and 0.305 µM and 0.287 µM and 0.614 µM
3 | Cc1ncc(-c2cc3c(N[C@@H](c4ccc5c(c4)OCCO5)C(C)C)ncnc3[nH]2)cn1 | 0.479 µM and 0.585 µM
4 | CC(C)[C@@H](Nc1ncnc2[nH]c(-c3cnn(CCC(N)=O)c3)cc12)c1ccc2c(c1)OCCO2 | 0.274 µM and 0.319 µM
5 | CC(C)[C@@H](Nc1ncnc2[nH]c(C(N)=O)cc12)c1ccc2c(c1)OCCO2 | 0.453 µM and 0.466 µM
6 | Cn1ncc(-c2cc3c(N[C@@H](c4ccc5c(c4)OCCO5)C(C)(C)C)ncnc3[nH]2)c1C#N | 0.309 µM and 0.332 µM
7 | CC(C)[C@@H](Nc1ncnc2[nH]c(-c3cnn(C)n3)cc12)c1ccc2c(c1)OCCO2 | 0.485 µM and 0.517 µM
8 | CC(C)C[C@@H](Nc1ncnc2[nH]ccc12)C(=O)O | > 99.5 µM
9 | CC(C)[C@@H](Nc1ncnc2[nH]c(C3CCS(=O)(=O)CC3)cc12)c1ccc2c(c1)OCCO2 | 1.19 µM and 1.78 µM
10 | CCn1ncc(-c2cc3c(N[C@@H](c4ccc5c(c4)OCCO5)C(C)C)ncnc3[nH]2)c1C | 0.905 µM and 1.06 µM
11 | CCn1ncc(-c2cc3c(N[C@@H](c4ccc5c(c4)OCCO5)C(C)C)ncnc3[nH]2)c1C#N | 0.857 µM and 0.8 µM
12 | CC(C)[C@@H](Nc1ncnc2[nH]c(-c3cccc(NC(N)=O)c3)cc12)c1ccc2c(c1)OCCO2 | 5.14 µM and 5.85 µM
13 | COc1cnn(C)c1-c1cc2c(N[C@@H](c3ccc4c(c3)OCCO4)C(C)C)ncnc2[nH]1 | 50.9 µM and 55.9 µM
14 | CC(C)[C@@H](Nc1ncnc2[nH]c(-c3ccc(-n4cccn4)cc3)cc12)c1ccc2c(c1)OCCO2 | > 99.5 µM
15 | CC(C)[C@@H](Nc1ncnc2[nH]c([C@@H]3CCOC3)cc12)c1ccc2c(c1)OCCO2 | 1.86 µM and 1.95 µM
16 | Cc1c(C#N)cncc1-c1cc2c(N[C@@H](c3ccc4c(c3)OCCO4)C(C)C)ncnc2[nH]1 | 19.2 µM and 16.3 µM
17 | C[C@@H](C(=O)O)[C@@H](NC(=O)c1ncnc2[nH]ccc12)c1ccc(Br)cc1 | 0.808 µM and 0.532 µM
18 | O=C(O)[C@@H]1C[C@H](F)CN1c1ncnc2[nH]ccc12 | > 99.5 µM
19 | CCC[C@@H](Nc1ncnc2[nH]ccc12)C(=O)O | > 99.5 µM
20 | CNC(=O)c1c[nH]c2ncnc(N[C@@H](c3ccc4c(c3)OCCO4)C(C)C)c12 | 0.728 µM and 0.692 µM
21 | CC(C)[C@@H](Nc1ncnc2[nH]c(-c3cccc4c3CN(C)C4=O)cc12)c1ccc2c(c1)OCCO2 | 2.15 µM and 2.54 µM
22 | O=C(O)[C@@H]1CC2(CCCCC2)CN1c1ncnc2[nH]ccc12 | > 99.5 µM
23 | CC(C)[C@H](Nc1ncnc2[nH]c(-c3cnn(CC(N)=O)c3)cc12)c1ccc2c(c1)OCCO2 | 90 µM and 93.5 µM

Row | SMILES | IC50
24 | CC(C)[C@@H](Nc1ncnc2[nH]c(-c3cncn3C)cc12)c1ccc2c(c1)OCCO2 | 5.77 µM and 7.42 µM
25 | CC(C)[C@@H](Nc1ncnc2[nH]cc(C(N)=O)c12)c1ccc2c(c1)OCCO2 | 0.786 µM and 0.865 µM
26 | CN1CC[C@@H]1[C@@H](Nc1ncnc2[nH]ccc12)c1ccc2c(c1)OCCO2 | > 99.5 µM and 66 µM
27 | COC(=O)c1c[nH]c2ncnc(N[C@@H](c3ccc4c(c3)OCCO4)C(C)C)c12 | 3.11 µM and 3.49 µM
28 | CC(C)[C@@H](Nc1ncnc2[nH]c(-c3cnn(C(C)C)c3C#N)cc12)c1ccc2c(c1)OCCO2 | 1.84 µM and 2.02 µM
29 | CCn1ccc(-c2cc3c(N[C@@H](c4ccc5c(c4)OCCO5)C(C)C)ncnc3[nH]2)n1 | 1.32 µM and 1.53 µM
30 | CC(C)[C@@H](Nc1ncnc2[nH]c(-c3ccnn3CC3CC3)cc12)c1ccc2c(c1)OCCO2 | 4.22 µM and 3.91 µM
31 | CO[C@H]1C[C@@H](C(=O)O)N(c2ncnc3[nH]ccc23)C1 | 79.4 µM and 83.6 µM
32 | CC(C)[C@@H](Nc1ncnc2[nH]c(-c3[nH]ncc3C3CC3)cc12)c1ccc2c(c1)OCCO2 | 16.1 µM and 14.3 µM
33 | COc1nc(N[C@@H](c2ccc3c(c2)OCCO3)C(C)C)c2cc[nH]c2n1 | > 99.5 µM
34 | O=C(O)[C@@H](Nc1ncnc2[nH]ccc12)C1CC1 | 72.2 µM and 72 µM
35 | O=C(O)[C@H]1C[C@H](O)CN1c1ncnc2[nH]ccc12 | > 99.5 µM
36 | CC(C)[C@@H](Nc1ncnc2[nH]c(-c3ccn(C)n3)cc12)c1ccc2c(c1)OCCO2 | 0.972 µM and 1.02 µM
37 | COc1ccc([C@@H]2CN(C(=O)c3ncnc4[nH]ccc34)C[C@H]2C(=O)O)cc1 | > 99.5 µM
38 | Cc1cc(-c2cc3c(N[C@@H](c4ccc5c(c4)OCCO5)C(C)C)ncnc3[nH]2)[nH]n1 | 2.56 µM and 3.09 µM
39 | CC(C)[C@@H](Nc1ncnc2[nH]cc(C(=O)N(C)C)c12)c1ccc2c(c1)OCCO2 | 1.95 µM and 1.97 µM
40 | CNc1nc(N[C@@H](c2ccc3c(c2)OCCO3)C(C)C)c2cc[nH]c2n1 | > 99.5 µM
41 | CC(C)[C@@H](Nc1nc(N(C)C)nc2[nH]ccc12)c1ccc2c(c1)OCCO2 | > 99.5 µM
42 | CC(=O)c1ccc(-c2cc3c(N[C@@H](c4ccc5c(c4)OCCO5)C(C)C)ncnc3[nH]2)[nH]1 | 2.97 µM and 3.24 µM
43 | CC(C)[C@@H](Nc1ncnc2[nH]cc(C#N)c12)c1ccc2c(c1)OCCO2 | 4.36 µM and 3.82 µM
44 | COC(=O)c1cc2c(N[C@@H](c3ccc4c(c3)OCCO4)C(C)C)ncnc2[nH]1 | 5.31 µM and 6.5 µM
45 | CC(C)[C@@H](Nc1ncnc2[nH]c(-c3ccn(C(C)C)n3)cc12)c1ccc2c(c1)OCCO2 | 2.27 µM and 2.62 µM
46 | CC(C)[C@@H](Nc1ncnc2[nH]c(-c3cncc(OCCN(C)C)c3)cc12)c1ccc2c(c1)OCCO2 | 0.903 µM and 0.891 µM

Row | SMILES | IC50
47 | CC(C)[C@@H](Nc1ncnc2[nH]c(-c3ccnn3C3CC3)cc12)c1ccc2c(c1)OCCO2 | 1.08 µM and 1.23 µM
48 | CC(C)[C@@H](Nc1ncnc2[nH]cc(S(=O)(=O)N(C)C)c12)c1ccc2c(c1)OCCO2 | 3.45 µM and 3.98 µM
49 | O=C(O)[C@H](CC1CCCCC1)Nc1ncnc2[nH]ccc12 | 92.3 µM and 91.8 µM
50 | Cc1cnn(-c2ccc(-c3cc4c(N[C@@H](c5ccc6c(c5)OCCO6)C(C)C)ncnc4[nH]3)cc2)c1 | > 99.5 µM
51 | CNS(=O)(=O)c1c[nH]c2ncnc(N[C@@H](c3ccc4c(c3)OCCO4)C(C)C)c12 | 2.57 µM and 2.6 µM
52 | CC(C)[C@@H](Nc1ncnc2[nH]c(-c3cncc(C#N)c3)cc12)c1ccc2c(c1)OCCO2 | 5.81 µM and 7.13 µM
53 | CC(C)[C@@H](Nc1ncnc2[nH]c(-c3ccc(C4(C#N)CC4)cc3)cc12)c1ccc2c(c1)OCCO2 | > 99.5 µM
54 | CC(C)[C@@H](Nc1ncnc2[nH]c(-c3ccnc(N4CCCC4)c3)cc12)c1ccc2c(c1)OCCO2 | 16.6 µM and 17.2 µM
55 | CC(=O)c1ccc(-c2cc3c(N[C@@H](c4ccc5c(c4)OCCO5)C(C)C)ncnc3[nH]2)o1 | 1.51 µM and 1.45 µM
56 | CC(C)c1n[nH]cc1-c1cc2c(N[C@@H](c3ccc4c(c3)OCCO4)C(C)C)ncnc2[nH]1 | 2.01 µM and 2.07 µM
57 | COc1ccc(C(=O)Nc2ccc(C(=O)N[C@@H]3c4ccccc4C[C@@H]3C(=O)O)cc2)cc1S(=O)(=O)NCCN1CCCC1 | > 99.5 µM
58 | CC(C)[C@@H](Nc1ncnc2[nH]ccc12)c1ccc2c(c1)CCNC2=O | 15.3 µM and 15 µM
59 | O=C(Nc1ccc(C(=O)N[C@@H]2c3ccccc3C[C@@H]2C(=O)O)cc1)c1ccc(C(=O)NC2CC2)cc1 | > 99.5 µM
60 | CC(C)[C@H](Nc1ncnc2[nH]ccc12)c1ccc2c(c1)NC(=O)CO2 | > 99.5 µM
61 | CC(C)[C@@H](Nc1ncnc2[nH]c(-c3cn(C)nc3C#N)cc12)c1ccc2c(c1)OCCO2 | 0.871 µM and 0.843 µM
62 | COCCn1ncc(-c2cc3c(N[C@@H](c4ccc5c(c4)OCCO5)C(C)C)ncnc3[nH]2)c1C#N | 0.394 µM and 0.449 µM
63 | Cc1cocc1-c1cc2c(N[C@@H](c3ccc4c(c3)OCCO4)C(C)C)ncnc2[nH]1 | 2.51 µM and 2.58 µM
64 | Cc1noc(C)c1-c1cc2c(N[C@@H](c3ccc4c(c3)OCCO4)C(C)C)ncnc2[nH]1 | 16.7 µM and 18.5 µM
65 | O=C(O)[C@H]1C[C@@H](F)CN1c1ncnc2[nH]ccc12 | > 99.5 µM
66 | COc1ccc([C@@](C)(CC(=O)O)NC(=O)c2ncnc3[nH]ccc23)cc1 | 19.3 µM and 18.2 µM
67 | CC(C)[C@@H](Nc1ncnc2[nH]c(-c3cnn(C4CCC4)n3)cc12)c1ccc2c(c1)OCCO2 | 3.84 µM and 3.92 µM
68 | CC(C)[C@@H](Nc1ncnc2[nH]c(-c3ccnc(C#N)c3)cc12)c1ccc2c(c1)OCCO2 | 2.09 µM and 2.22 µM
69 | CC(C)c1nc(N[C@@H](c2ccc3c(c2)OCCO3)C(C)C)c2cc[nH]c2n1 | > 99.5 µM

Row | SMILES | IC50
70 | CC(C)[C@@H](Nc1ncnc2[nH]c(-c3cnc(C#N)nc3)cc12)c1ccc2c(c1)OCCO2 | 2.52 µM and 2.51 µM
71 | CC(C)[C@@H](Nc1ncnc2[nH]c(C(=O)N(C)C)cc12)c1ccc2c(c1)OCCO2 | 21.9 µM and 18.9 µM
72 | Cc1coc(-c2cc3c(N[C@@H](c4ccc5c(c4)OCCO5)C(C)C)ncnc3[nH]2)c1 | > 99.5 µM
73 | Cc1nn(C)nc1-c1cc2c(N[C@@H](c3ccc4c(c3)OCCO4)C(C)C)ncnc2[nH]1 | 27.6 µM and 34.2 µM
74 | N#Cc1ccc(C(=O)Nc2ccc(C(=O)N[C@@H]3c4ccccc4C[C@@H]3C(=O)O)cc2)cc1 | > 99.5 µM
75 | COc1cc(Nc2ccc(C(=O)N[C@@H]3c4cccc(O)c4C[C@H]3C(=O)O)cc2)[nH]n1 | > 99.5 µM
76 | O=C(Nc1ccc(C(=O)N[C@@H]2c3ccccc3C[C@@H]2C(=O)O)cc1)c1ccc(N2CCC(O)CC2)cc1 | > 99.5 µM
77 | CCn1cc(-c2cc3c(N[C@@H](c4ccc5c(c4)OCCO5)C(C)C)ncnc3[nH]2)c(C)n1 | 0.423 µM and 0.473 µM
78 | O=C(O)[C@H](CC1CC1)Nc1ncnc2[nH]ccc12 | > 99.5 µM
79 | CC(C)[C@@H](Nc1ncnc2[nH]cc(S(N)(=O)=O)c12)c1ccc2c(c1)OCCO2 | 3.43 µM and 3.07 µM
80 | CC(C)[C@@H](Nc1ncnc2[nH]c(-c3cccc(C#N)c3)cc12)c1ccc2c(c1)OCCO2 | 17.8 µM and 22.1 µM
81 | c1nc(N[C@@H](c2ccc3c(c2)OCCO3)C2CNC2)c2cc[nH]c2n1 | > 99.5 µM
82 | Cc1cc(-c2cc3c(N[C@@H](c4ccc5c(c4)OCCO5)C(C)C)ncnc3[nH]2)n(C)n1 | 1.07 µM and 1.02 µM
83 | CCn1cc(-c2cc3c(N[C@@H](c4ccc5c(c4)OCCO5)C(C)C)ncnc3[nH]2)cn1 | 0.626 µM and 0.652 µM
84 | COC(=O)c1c[nH]c(-c2cc3c(N[C@@H](c4ccc5c(c4)OCCO5)C(C)C)ncnc3[nH]2)c1 | 2.98 µM and 3.58 µM
85 | CC(C)[C@@H](Nc1ncnc2[nH]c(-c3cnn(CC4CC4)c3)cc12)c1ccc2c(c1)OCCO2 | 0.804 µM and 0.853 µM
86 | CC(C)[C@@H](Nc1ncnc2[nH]c(-c3ccoc3)cc12)c1ccc2c(c1)OCCO2 | 1.52 µM and 1.64 µM
87 | COc1ccc([C@@H](CC(=O)O)NC(=O)c2c[nH]c3c(NC(=O)NC4CC4)cccc23)cc1 | > 99.5 µM
88 | CC(C)[C@@H](Nc1ncnc2[nH]cc(Br)c12)c1ccc2c(c1)OCCO2 | 10.1 µM and 11.8 µM
89 | CC(C)[C@@H](Nc1ncnc2[nH]c(C3=CCOC3)cc12)c1ccc2c(c1)OCCO2 | 0.421 µM and 0.563 µM
90 | CC(C)[C@@H](Nc1nc(C2CC2)nc2[nH]ccc12)c1ccc2c(c1)OCCO2 | > 99.5 µM
91 | O=C(O)[C@@H]1C[C@@H](O)CN1c1ncnc2[nH]ccc12 | > 99.5 µM
